Experimental data: the supplement of paper PMC10307832

What was measured:
Assay in all cases: relative viability (nuclei count vs DMSO), 5 days (fraction); higher = more cells survive
Imatinib + Phenformin = compound: Cc1ccc(NC(=O)c2ccc(CN3CCN(C)CC3)cc2)cc1Nc1nccc(-c2cccnc2)n1 [Imatinib] + N=C(N)NC(=N)NCCc1ccccc1 [Phenformin] (partner 250 µM)
Procedure, shortened: (§1)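 Each reported value is a median over duplicate plates. It expresses relative viability: treated-well nuclei count divided by vehicle-well nuclei count. Lung cancer cell lines in 1536-well plates were dosed by pin tool a day after seeding, alone with one drug or with a fixed anchor-drug dose plus five library-drug doses (not always all listed) in √10 steps, and nuclei were counted after 5 days.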

Imatinib + Pemetrexed = compound: Cc1ccc(NC(=O)c2ccc(CN3CCN(C)CC3)cc2)cc1Nc1nccc(-c2cccnc2)n1 [Imatinib] + Nc1nc2[nH]cc(CCc3ccc(C(=O)N[C@@H](CCC(=O)O)C(=O)O)cc3)c2c(=O)[nH]1 [Pemetrexed] (partner 0.2 µM)
Procedure, shortened: as §1

Imatinib + Crizotinib = compound: Cc1ccc(NC(=O)c2ccc(CN3CCN(C)CC3)cc2)cc1Nc1nccc(-c2cccnc2)n1 [Imatinib] + C[C@@H](Oc1cc(-c2cnn(C3CCNCC3)c2)cnc1N)c1c(Cl)ccc(F)c1Cl [Crizotinib] (partner 1 µM)
Procedure, shortened: as §1

Imatinib + Linsitinib = compound: Cc1ccc(NC(=O)c2ccc(CN3CCN(C)CC3)cc2)cc1Nc1nccc(-c2cccnc2)n1 [Imatinib] + C[C@]1(O)C[C@@H](c2nc(-c3ccc4ccc(-c5ccccc5)nc4c3)c3c(N)nccn32)C1 [Linsitinib] (partner 1 µM)
Procedure, shortened: as §1

Cell Line	relative viability (Imatinib + Phenformin; first compound 0.02 µM)	relative viability (Imatinib + Phenformin; first compound 0.06325 µM)	relative viability (Imatinib + Phenformin; first compound 0.2 µM)	relative viability (Imatinib + Phenformin; first compound 0.6325 µM)	relative viability (Imatinib + Phenformin; first compound 2 µM)	relative viability (Imatinib + Pemetrexed; first compound 0.02 µM)	relative viability (Imatinib + Pemetrexed; first compound 0.06325 µM)	relative viability (Imatinib + Pemetrexed; first compound 0.2 µM)	relative viability (Imatinib + Pemetrexed; first compound 2 µM)	relative viability (Imatinib + Crizotinib; first compound 0.02 µM)	relative viability (Imatinib + Crizotinib; first compound 0.2 µM)	relative viability (Imatinib + Crizotinib; first compound 0.6325 µM)	relative viability (Imatinib + Crizotinib; first compound 2 µM)	relative viability (Imatinib + Linsitinib; first compound 0.02 µM)	relative viability (Imatinib + Linsitinib; first compound 0.06325 µM)	relative viability (Imatinib + Linsitinib; first compound 0.2 µM)	relative viability (Imatinib + Linsitinib; first compound 0.6325 µM)	relative viability (Imatinib + Linsitinib; first compound 2 µM)	relative viability (Imatinib + Pemetrexed; first compound 0.6325 µM)	relative viability (Imatinib + Crizotinib; first compound 0.06325 µM)
NCI-H1792	0.262	0.237	0.233	0.235	0.35	1.06	0.931	0.848	0.748	1.4	0.931	0.92	0.946	0.623	0.332	0.502	0.317	0.566	–	–
COR-L23	0.469	0.541	0.496	0.419	0.422	0.196	0.206	0.209	0.159	0.807	0.809	0.685	0.632	1.14	1.01	1.18	0.895	1.04	0.196	0.73
PC-3 [JPC-3]	0.474	–	0.485	0.454	0.414	1.28	–	–	1.07	0.979	1.02	0.921	0.96	–	–	1.05	1.04	–	1.16	–
SW 1573	0.325	0.365	0.361	0.352	0.335	0.898	0.354	–	0.811	0.996	0.956	0.726	0.755	0.879	0.965	0.799	0.685	0.809	0.86	–
NCI-H1355	0.493	–	0.461	0.409	0.391	1.14	–	1.11	1.01	1.13	1.21	1.03	1.15	0.865	–	0.846	0.841	0.871	1.08	–
NCI-H358	0.317	0.349	0.418	0.292	0.335	0.167	0.169	0.189	0.178	0.616	0.571	0.555	0.616	0.726	–	0.851	0.669	0.863	0.171	–
COR-L 105	0.51	0.632	0.453	0.497	0.373	1.33	1.27	1.13	0.983	0.793	0.791	0.827	0.726	1.08	1.14	1	1.02	0.978	1.06	–
NCI-H1666	0.534	0.613	0.592	0.663	0.551	0.902	0.906	0.897	0.842	1.02	0.991	1.14	0.966	0.718	0.849	–	0.986	0.857	0.842	1.09
NCI-H1993	0.56	0.506	0.519	0.485	0.52	0.581	0.44	0.501	0.582	–	–	0.927	0.815	–	0.73	0.747	0.72	0.707	0.616	0.905
H3255	0.326	0.377	0.378	0.335	0.376	0.536	0.499	0.554	0.573	0.636	0.816	0.889	0.793	1.06	0.921	0.877	0.965	0.998	0.565	–
HARA	0.57	–	0.439	0.39	0.387	0.256	0.235	0.23	0.227	1.15	1.22	1.05	1.08	1.16	0.906	1.05	0.994	0.969	0.286	1.09
NCI-H661	0.245	0.255	0.259	0.263	0.258	0.915	1.09	0.93	0.936	–	1.05	–	0.869	0.553	0.345	0.611	0.362	0.56	0.931	0.806
NCI-H2347	0.381	0.376	0.386	0.307	0.381	0.371	0.44	0.416	0.416	0.675	0.729	0.647	0.797	0.943	0.839	0.965	–	0.978	0.467	0.674
LU99A	0.887	0.923	0.77	0.899	0.785	0.161	0.206	0.157	0.313	0.53	0.534	0.536	0.532	0.53	0.543	0.654	0.611	0.615	0.232	0.735
A-427	0.327	–	0.316	0.27	0.237	1.05	1.08	1.02	0.971	0.981	0.993	0.755	–	1.11	–	1.11	1.17	1.08	–	–
NCI-H2023	0.503	0.391	0.356	0.341	0.342	0.224	0.318	0.304	0.27	0.61	0.715	0.616	0.706	0.778	0.871	0.796	0.682	0.719	–	0.708
LK-2	0.447	0.413	0.378	0.439	0.46	0.272	0.29	0.296	0.272	0.213	0.224	0.236	0.179	0.614	0.427	0.739	0.222	0.689	–	–
BEN	0.257	–	0.258	0.287	0.243	0.832	0.835	0.691	0.879	1.04	1	0.762	0.93	0.908	0.785	0.921	0.837	0.969	0.89	0.847

Cell Line	relative viability (Imatinib + Phenformin; first compound 0.02 µM)	relative viability (Imatinib + Phenformin; first compound 0.06325 µM)	relative viability (Imatinib + Phenformin; first compound 0.2 µM)	relative viability (Imatinib + Phenformin; first compound 0.6325 µM)	relative viability (Imatinib + Phenformin; first compound 2 µM)	relative viability (Imatinib + Pemetrexed; first compound 0.02 µM)	relative viability (Imatinib + Pemetrexed; first compound 0.06325 µM)	relative viability (Imatinib + Pemetrexed; first compound 0.2 µM)	relative viability (Imatinib + Pemetrexed; first compound 2 µM)	relative viability (Imatinib + Crizotinib; first compound 0.02 µM)	relative viability (Imatinib + Crizotinib; first compound 0.2 µM)	relative viability (Imatinib + Crizotinib; first compound 0.6325 µM)	relative viability (Imatinib + Crizotinib; first compound 2 µM)	relative viability (Imatinib + Linsitinib; first compound 0.02 µM)	relative viability (Imatinib + Linsitinib; first compound 0.06325 µM)	relative viability (Imatinib + Linsitinib; first compound 0.2 µM)	relative viability (Imatinib + Linsitinib; first compound 0.6325 µM)	relative viability (Imatinib + Linsitinib; first compound 2 µM)	relative viability (Imatinib + Pemetrexed; first compound 0.6325 µM)	relative viability (Imatinib + Crizotinib; first compound 0.06325 µM)
NCI-H2228	0.335	–	0.268	0.277	0.272	0.344	0.389	0.303	0.33	0.351	0.54	0.478	0.393	0.742	0.555	0.678	0.482	0.638	0.345	0.383
PC-14	0.626	0.802	0.586	0.374	0.656	0.143	0.16	0.135	0.137	1.15	0.935	0.958	0.848	–	0.97	1.06	0.984	1.01	0.131	0.936
LOU-NH91	0.679	0.693	0.675	0.679	0.665	0.361	0.385	0.381	0.395	0.747	0.767	0.677	0.769	0.993	0.964	0.996	0.869	0.87	0.405	0.778
RERF-LC-KJ	0.49	0.472	0.432	0.407	0.428	0.448	0.369	0.507	0.43	0.867	0.51	0.855	0.826	0.879	1.08	1.03	0.872	0.94	0.487	0.885
NCI-H647	0.518	0.696	0.611	0.513	0.461	0.18	0.183	0.192	0.158	1.1	1.45	1.12	1.06	1.43	1.44	1.25	1.13	1.18	0.202	1.36
LCLC-103H	0.342	0.325	0.347	0.316	0.255	0.458	0.445	0.472	0.504	1.16	–	0.937	–	–	–	1.08	1.03	–	0.464	–
NCI-H1975	0.446	0.43	0.407	0.425	0.357	0.308	0.299	0.299	0.284	1.1	1.1	0.916	1.07	0.977	0.965	1.07	0.843	0.958	0.309	1.16
EPLC-272H	0.308	–	0.273	0.322	0.442	0.261	–	–	0.336	0.973	1.16	–	1.03	1.28	–	1.24	1.23	1.02	0.328	–
NCI-H520	0.695	0.823	0.545	0.568	0.497	0.556	0.768	0.709	0.733	0.764	0.874	0.963	0.647	1.09	1.48	1.02	1.14	0.988	0.716	0.978
NCI-H1563	0.634	0.648	0.658	0.607	0.625	0.861	0.678	0.787	0.631	0.823	0.863	0.884	0.825	1.15	1.31	1.22	1.25	1.16	0.772	0.884
NCI-H1755	0.643	0.674	0.596	0.568	0.536	0.568	0.44	0.416	0.625	1.08	1.06	0.808	0.794	1.05	1.08	–	0.979	0.994	0.386	1.12
NCI-H2087	0.478	–	0.478	0.548	0.535	0.692	–	0.749	–	0.894	0.943	0.941	0.718	1.09	1	1.07	0.991	0.85	0.58	0.983
EMC-BAC-2	0.572	0.632	0.555	0.467	0.46	0.443	0.483	0.447	0.424	0.825	0.872	0.685	0.707	0.845	0.961	0.889	0.767	0.868	0.507	0.761
NCI-H23	0.863	0.84	0.768	0.764	0.731	0.692	0.69	–	0.571	0.573	0.584	0.374	0.398	0.535	0.641	0.588	0.546	0.598	–	0.712
HCC-44	0.252	0.22	0.222	0.196	0.192	0.653	–	0.68	0.544	0.921	0.911	0.841	0.712	0.801	–	0.664	0.549	0.646	0.671	0.841
HCC-366	0.64	–	0.637	0.631	0.579	0.178	0.197	0.189	0.128	1.19	0.777	0.334	0.399	0.685	–	1.02	0.692	0.844	0.173	–
HCC-827	0.432	0.481	0.475	0.37	0.403	0.283	0.285	0.249	0.255	0.954	0.91	–	0.973	1.02	0.96	–	0.98	0.897	0.267	0.889
